Our source for the GI50 and TGI values is PubChem BioAssay (NCI).

Where “and” joins values, the source holds several entries; their conditions need not be identical. Equal entries are not always repeated.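 Each compound was tested at five concentrations against cells in 96-well plates for 48 hours. Abbreviation: GI50, concentration required for 50% inhibition of growth. The concentration for full growth arrest is given as TGI.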

Among the test systems are COLO 205 colon; HCC-2998 colon; HL-60(TB) leukemia; HOP-62 NSCLC; IGROV1 ovarian; M14 melanoma; SK-OV-3 ovarian; SN12C renal; U251 CNS; UACC-62 melanoma.
What all share (test): NCI-60 cell line screen, 48 h

For `O=C(CF)N(O)c1ccc(/C=C/c2ccccc2)cc1`, the GI50 with COLO 205 colon is 5.83 µM; in the assay with HCC-2998 colon it was 1.64 µM; in the assay with HL-60(TB) leukemia it was 0.605 µM; in the assay with HOP-62 NSCLC it was 5.91 µM; with IGROV1 ovarian, 2.53 µM; in the assay on M14 melanoma, 3.82 µM. Moreover, the GI50 is 7.53 µM in the assay with SK-OV-3 ovarian, 2.67 µM in the assay on SN12C renal, 1.82 µM in the assay on U251 CNS and 1.81 µM with UACC-62 melanoma. The TGI in the assay on COLO 205 colon was greater than 100 µM; in the assay with HCC-2998 colon, 7.69 µM; in the assay on HL-60(TB) leukemia it was 13.6 µM; in the assay with HOP-62 NSCLC it was 32.2 µM; with IGROV1 ovarian, 13 µM; with M14 melanoma, greater than 100 µM. Besides, the TGI with SK-OV-3 ovarian was 32.1 µM; in the assay on SN12C renal it was greater than 63.5 µM; in the assay on U251 CNS, greater than 60 µM; in the assay on UACC-62 melanoma it was 10.7 µM.
`CCN1C(NN)=NS(=O)(=O)c2ccccc21`: the TGI in the assay with COLO 205 colon, in the assay with HCC-2998 colon, in the assay on HL-60(TB) leukemia, in the assay on HOP-62 NSCLC, in the assay with IGROV1 ovarian and in the assay on M14 melanoma was greater than 100 µM each time. The TGI with SK-OV-3 ovarian, with SN12C renal, in the assay with U251 CNS and in the assay on UACC-62 melanoma was greater than 100 µM in each case.
For `NNC(=S)N/N=C(/C(=O)Nc1cc(Cl)ccc1Cl)C1C(=O)Nc2ccccc2S1=O` (stereo not drawn), the TGI in the assay with COLO 205 colon, with HCC-2998 colon, in the assay on HL-60(TB) leukemia, in the assay with HOP-62 NSCLC, in the assay on IGROV1 ovarian and in the assay on M14 melanoma was greater than 100 µM throughout. For the same compound, the TGI in the assay on SK-OV-3 ovarian, with SN12C renal, in the assay with U251 CNS and with UACC-62 melanoma was greater than 100 µM throughout.
Take `COc1ccc2c(c1)C(=O)C(=O)c1cc(O)c(OC)c(OC)c1-2`: the GI50 is 1.89 µM in the assay with COLO 205 colon; 1.15 µM in the assay with HOP-62 NSCLC; 1.71 µM with IGROV1 ovarian; 1.73 µM with M14 melanoma; 1.79 µM in the assay with SK-OV-3 ovarian; 1.71 µM with SN12C renal. The GI50 was 1.78 µM with U251 CNS and 1.76 µM in the assay on UACC-62 melanoma. Moreover, the TGI in the assay on COLO 205 colon was 3.54 µM and 3.74 µM; in the assay with HCC-2998 colon, 10.5 µM and 14.1 µM; in the assay on HL-60(TB) leukemia it was 0.681 µM; with HOP-62 NSCLC, 1.72 µM and 2.58 µM; in the assay on IGROV1 ovarian it was 1.56 µM and 3.08 µM; in the assay with M14 melanoma, 1.71 µM and 3.11 µM. In addition, the TGI in the assay with SK-OV-3 ovarian was 7.27 µM and 3.17 µM; in the assay on SN12C renal it was 1.6 µM and 3.08 µM; with U251 CNS it was 1.64 µM and 3.16 µM; with UACC-62 melanoma, 1.54 µM and 3.16 µM.
On to `Oc1c(CN2CCCC2)cc(COCc2ccc(Br)cc2)c2cccnc12`, for which the GI50 in the assay on COLO 205 colon was 4.62 µM; with HCC-2998 colon, 0.901 µM; in the assay with HL-60(TB) leukemia it was 0.355 µM; in the assay with HOP-62 NSCLC, 0.362 µM; with IGROV1 ovarian, 0.793 µM; in the assay with M14 melanoma it was 0.36 µM. The GI50 with SK-OV-3 ovarian was 0.594 µM; in the assay on SN12C renal, 0.989 µM; with U251 CNS, 0.525 µM; in the assay on UACC-62 melanoma it was 0.343 µM. Moreover, the TGI with COLO 205 colon was 18.7 µM; in the assay with HCC-2998 colon, 3.61 µM; in the assay with HL-60(TB) leukemia it was 1.43 µM; in the assay on HOP-62 NSCLC it was 2.3 µM; with IGROV1 ovarian, 5.2 µM; in the assay on M14 melanoma, 1.77 µM. Also, the TGI was 2.84 µM in the assay with SK-OV-3 ovarian, 5.86 µM in the assay on SN12C renal, 2.78 µM in the assay with U251 CNS and 1.72 µM in the assay on UACC-62 melanoma.
For the compound `CC/C=C\C/C=C\C[C@H](O)C/C=C1/C(=O)C=C[C@@H]1C/C=C\CCCC(=O)O`, the GI50 with COLO 205 colon was 3.78 µM; in the assay on HCC-2998 colon, 2.21 µM; in the assay with HL-60(TB) leukemia it was 2.93 µM; in the assay with HOP-62 NSCLC it was 2.77 µM; with IGROV1 ovarian, 6.78 µM; with M14 melanoma, 2.82 µM. For the same compound, the GI50 in the assay on SK-OV-3 ovarian is 16 µM; with SN12C renal, 3.6 µM; in the assay on U251 CNS it was 3.54 µM; in the assay on UACC-62 melanoma it was 1.94 µM. The TGI was found to be 10.9 µM with COLO 205 colon; 4.28 µM in the assay on HCC-2998 colon; 10.1 µM in the assay on HL-60(TB) leukemia; 7.4 µM in the assay with HOP-62 NSCLC; 25.9 µM with IGROV1 ovarian; 12 µM with M14 melanoma. The TGI in the assay on SK-OV-3 ovarian amounted to 34.7 µM; in the assay with SN12C renal it was 43.1 µM; in the assay on U251 CNS, 12.2 µM; with UACC-62 melanoma, 8.02 µM.
In the case of `COC(=O)[C@]12CC[C@@H](C)[C@H](C)[C@@H]1C1=CC[C@@H]3[C@@]4(C)C(C=O)=C[C@@](C)(COC(=O)c5ccco5)[C@@H]4C(=O)C[C@@]3(C)[C@]1(C)CC2`, the GI50 with COLO 205 colon was 0.0314 µM; in the assay with HCC-2998 colon it was 6.22 µM; with HL-60(TB) leukemia, 3.58 µM; with HOP-62 NSCLC, 18.9 µM; in the assay on IGROV1 ovarian, 7.66 µM; in the assay on M14 melanoma, 0.286 µM. The GI50 with SK-OV-3 ovarian is 43.1 µM; in the assay with SN12C renal, 8.69 µM; with U251 CNS, 4.83 µM; with UACC-62 melanoma, 0.232 µM. In addition, the TGI with COLO 205 colon is 0.0971 µM; in the assay on HCC-2998 colon, greater than 100 µM; in the assay on HL-60(TB) leukemia it was 15.4 µM; in the assay with HOP-62 NSCLC it was greater than 100 µM; in the assay on IGROV1 ovarian it was greater than 100 µM; in the assay with M14 melanoma it was greater than 100 µM. The TGI in the assay with SK-OV-3 ovarian was greater than 100 µM; with SN12C renal it was greater than 100 µM; in the assay with U251 CNS, greater than 100 µM; in the assay on UACC-62 melanoma it was 2.34 µM.
Turning to `N#Cc1ccc(N2Cc3ccccc3OC3=C2C(=O)c2c(O)ccc(O)c2C3=O)cc1`, the GI50 with COLO 205 colon is 0.0907 µM; in the assay on HCC-2998 colon, 0.762 µM; with HL-60(TB) leukemia it was 0.13 µM; in the assay on HOP-62 NSCLC, 1.29 µM; in the assay with IGROV1 ovarian, 0.497 µM; in the assay with M14 melanoma it was 0.209 µM. Moreover, the GI50 was 2.99 µM in the assay with SK-OV-3 ovarian, 0.856 µM with SN12C renal, 0.514 µM in the assay with U251 CNS and 0.24 µM in the assay on UACC-62 melanoma. The TGI in the assay on COLO 205 colon is 0.268 µM; in the assay on HCC-2998 colon, 1.79 µM; in the assay on HL-60(TB) leukemia, 0.821 µM; in the assay on HOP-62 NSCLC, 4.99 µM; in the assay on IGROV1 ovarian, 1.36 µM; in the assay with M14 melanoma, 0.496 µM. Also, the TGI in the assay on SK-OV-3 ovarian was found to be 11.9 µM; in the assay with SN12C renal, 2.16 µM; with U251 CNS it was 1.71 µM; in the assay with UACC-62 melanoma, 0.667 µM.
